From ChEMBL document CHEMBL4196205, “Dihydrochalcone Glucosides from the Subaerial Parts of Thonningia sanguinea and Their in Vitro PTP1B Inhibitory Activities” (J Nat Prod, 2018)

Columns and labels:
[1] = target: T1, Tyrosine-protein phosphatase non-receptor type 1 (Homo sapiens) (UniProt P18031); test: Inhibition of recombinant human PTP1B using pNPP as substrate assessed as residual activity at 30 uM after 30 mins by spectrometric method relative to control
T1 sequence (whole entry): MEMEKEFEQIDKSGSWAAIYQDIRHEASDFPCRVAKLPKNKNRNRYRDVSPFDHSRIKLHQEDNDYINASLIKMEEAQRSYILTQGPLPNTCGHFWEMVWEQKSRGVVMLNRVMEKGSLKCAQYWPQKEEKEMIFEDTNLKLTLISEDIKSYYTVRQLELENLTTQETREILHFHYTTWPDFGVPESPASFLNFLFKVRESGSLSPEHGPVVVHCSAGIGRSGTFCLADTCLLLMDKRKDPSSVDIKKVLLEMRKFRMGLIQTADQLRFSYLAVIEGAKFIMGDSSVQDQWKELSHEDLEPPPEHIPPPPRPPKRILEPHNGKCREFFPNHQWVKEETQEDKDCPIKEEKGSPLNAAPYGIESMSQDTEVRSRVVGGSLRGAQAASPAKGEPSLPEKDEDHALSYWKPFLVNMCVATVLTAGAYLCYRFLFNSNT

[2] = target: T2, Tyrosine-protein phosphatase non-receptor type 1 (Homo sapiens, UniProt P18031); test: Inhibition of recombinant human PTP1B using pNPP as substrate assessed as residual activity after 30 mins by spectrometric method
T2 sequence (P18031 whole entry): T1 sequence (whole entry)

[3] = target: T1, Tyrosine-protein phosphatase non-receptor type 1 (Homo sapiens); test: Inhibition of PTP1B in human HepG2 cells assessed as increase in insulin-stimulated IR tyrosine phosphorylation at Y1150/1151 residues preincubated for 30 mins followed by insulin addition measured after 5 mins by immuno blot method; type: cell-based
HepG2 [4] = test: Cytotoxicity against human HepG2 cells assessed as decrease in cell viability at > 30 uM after 24 hrs by resazurin dye based assay; conditions: hepg2, 24 h
HepG2 [5] = test: Cytotoxicity against human HepG2 cells assessed as decrease in cell viability at > 30 uM after 24 hrs by crystal violet staining based assay; conditions: hepg2, 24 h

| Compound | Activity [1] | IC50 [2] | also measured |
| --- | --- | --- | --- |
| COc1cc(/C=C/CO)ccc1O[C@@H]1O[C@H](CO)[C@@H](O)[C@H](O)[C@H]1O | 99.2% | – | – |
| O=C(O[C@@H]1[C@@H](O)[C@H](Oc2cc(O)cc(O)c2C(=O)CCc2ccc(O)c(O)c2)O[C@@H]2COC(=O)c3cc(O)c(O)c(O)c3-c3c(cc(O)c(O)c3O)C(=O)O[C@@H]12)c1cc(O)c(O)c(O)c1 | 29.2% | 24.7 µM | – |
| COc1cc([C@H]2OC[C@H]3[C@@H]2CO[C@@H]3c2ccc(O)c(OC)c2)ccc1O | 98.6% | – | – |
| O=C(O[C@@H]1[C@@H](O)[C@H](Oc2cc(O)c(C(=O)CCc3ccccc3)c(O)c2)O[C@@H]2COC(=O)c3cc(O)c(O)c(O)c3-c3c(cc(O)c(O)c3O)C(=O)O[C@@H]12)c1cc(O)c(O)c(O)c1 [THONNINGIANIN A] | 1.9% | 4.4 µM | inhibition [3]: Dose-dependent effect; Activity (HepG2 [4]): Toxic; Activity (HepG2 [5]): Toxic |
| O=C(OC[C@H]1O[C@@H](Oc2cc(O)c(C(=O)CCc3ccccc3)c(O)c2)[C@H](O)[C@@H](O)[C@@H]1O)c1cc(O)c(O)c(O)c1 | 99.4% | – | – |
| O=C1OC[C@H]2O[C@@H](Oc3cc(O)cc(O)c3C(=O)CCc3ccc(O)c(O)c3)[C@H](O)[C@@H](O)[C@@H]2OC(=O)c2cc(O)c(O)c(O)c2-c2c1cc(O)c(O)c2O | 84.4% | – | – |
| O=C1OC[C@H]2O[C@@H](Oc3cc(O)c(C(=O)CCc4ccccc4)c(O)c3)[C@H](O)[C@@H](O)[C@@H]2OC(=O)c2cc(O)c(O)c(O)c2-c2c1cc(O)c(O)c2O [THONNINGIANIN B] | 28.5% | 21.7 µM | – |
| COc1cc(C[C@H]2CO[C@H](c3ccc(O)c(OC)c3)[C@H]2CO)ccc1O | 86.1% | – | – |
| O=C(CCc1ccc(O)c(O)c1)c1c(O)cc(O)cc1O[C@@H]1O[C@H](CO)[C@@H](O)[C@H](O)[C@H]1O | 102% | – | – |
| O=C(CCc1ccccc1)c1c(O)cc(O[C@@H]2O[C@H](CO)[C@@H](O)[C@H](O)[C@H]2O)cc1O | 97.7% | – | – |
| O=C(O[C@@H]1[C@@H](O)[C@H](Oc2cc(O)cc(O)c2C(=O)CCc2ccc(O)cc2)O[C@@H]2COC(=O)c3cc(O)c(O)c(O)c3-c3c(cc(O)c(O)c3O)C(=O)O[C@@H]12)c1cc(O)c(O)c(O)c1 | 20.8% | 19.3 µM | – |
| O=C(OC[C@H]1O[C@@H](Oc2cc(O)cc(O)c2C(=O)CCc2ccc(O)c(O)c2)[C@H](O)[C@@H](O)[C@@H]1O)c1cc(O)c(O)c(O)c1 | 91.7% | – | – |
| O=C1OC[C@H]2O[C@@H](Oc3cc(O)c(C(=O)CCc4ccc(O)cc4)c(O)c3)[C@H](O)[C@@H](O)[C@@H]2OC(=O)c2cc(O)c(O)c(O)c2-c2c1cc(O)c(O)c2O | 30.9% | 23.8 µM | – |
